# Measurements reported in patent publication US9290459B1, “Substituted bicyclic dihydropyrimidinones and their use as inhibitors of neutrophil elastase activity” (Boehringer Ingelheim International GmbH, priority 2013, dated 2016).
# pEC50, pIC50: −log10 of the molar value.
# How the values were obtained:
# human hepatocytes = experiment: Metabolic stability with human hepatocytes; assay type: in vitro ADME; conditions: human hepatocyte suspension, 1 μM test compound, scaled with well stirred model
# Experimental: Assay for the Determination of Metabolic Stability with Human Hepatocytes The metabolic degradation of the test compound is assayed in a human hepatocyte suspension. Human hepatocytes (typically cryopreserved) are incubated in an appropriate buffer system (e.g. […] Samples are transferred into acetonitrile and pelleted by centrifugation (5 min) The supernatant is transferred to a new 96-deepwell plate, evaporated under nitrogen and resuspended. The decline of parent compound is analyzed by LC-MS/MS.
# Aqueous solubility = assay type: physicochemical; conditions: McIlvaine buffer pH 6.8, 2.5% DMSO, 24 h shaking; for solubility at 24 h: McIlvaine buffer pH 6.8 with 2.5% DMSO, pH 6.8, aqueous buffer, kinetic from dmso stock
# Experimental: Assay for Determination of Aqueous Solubility […] After 24 h of shaking, the solutions or suspensions are filtered and analyzed by LC-UV. The amount dissolved in buffer is compared to the amount dissolved in the acetonitrile/water (1/1) solution.
# [1] = Metabolic stability with human liver microsomes; assay type: in vitro ADME; conditions: for half-life at 1 μM: human, microsomes, pH 7.6
# [2] = Drug transport across human Caco-2 cells; assay type: in vitro ADME; conditions: human; for Papp A→B at 10 µM / Papp B→A at 10 µM: Caco-2, pH 7.2, Caco-2 monolayers, pH 7.2, 37° C.; for Papp A→B at 10 µM: apical-to-basal, read-out: PEAB; for Papp B→A at 10 µM: basal-to-apical, read-out: PEBA; for efflux ratio at 10 μM: Caco-2, pH 7.2, PEBA/PEAB, Caco-2
# [3] = target: Human neutrophil elastase (Homo sapiens (Human), UniProt P08246); experiment: Human Neutrophil Elastase Assay; assay type: biochemical; conditions: human neutrophil elastase, substrate MeOSuc-Ala-Ala-Pro-Val-AMC 250 μM, pH 7.5; read-out: IC50
# [4] = target: neutrophil elastase in human plasma (Homo sapiens (Human), UniProt P08246); experiment: Neutrophil elastase inhibitory activity in human plasma (zymosan-stimulated blood); assay type: biochemical; conditions: neutrophil elastase enriched human plasma from zymosan-stimulated blood; read-out: EC50
# neutrophil elastase in human plasma, sequence (P08246 30-247): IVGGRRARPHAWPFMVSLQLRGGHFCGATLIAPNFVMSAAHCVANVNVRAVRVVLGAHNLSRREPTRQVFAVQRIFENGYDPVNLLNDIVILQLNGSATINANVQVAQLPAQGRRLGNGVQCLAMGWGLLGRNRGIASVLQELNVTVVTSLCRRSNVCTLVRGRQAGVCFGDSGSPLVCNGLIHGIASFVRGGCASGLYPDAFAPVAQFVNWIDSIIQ
# Human neutrophil elastase, sequence (P08246 30-247): as above
CL (predicted human hepatic in vivo blood clearance) (human hepatocytes) [mL/min/kg],Aqueous solubility (Aqueous solubility) [µg/mL],"t1/2 INVITRO ([1]; pooled human liver microsomes, 1 mg/ml protein, 1 μM test compound, 37° C., NADPH) [h]",half-life at 1 μM [1] [h],Papp A→B at 10 µM [2] [×10⁻⁶ cm/s],Papp B→A at 10 µM [2] [×10⁻⁶ cm/s],solubility at 24 h (Aqueous solubility) [µg/mL],pIC50 [3],pEC50 [4],efflux ratio at 10 μM [2],Compound
–,–,–,> 2.17,57.1,58.3,41,8.96,> 9.00,1,CNC(=O)N1C(=O)N(c2cccc(C(F)F)c2)C2=C(C(=O)CC2)C1c1ccc(C#N)cc1 (stereo not shown) [Example 52.1]
3,–,–,> 2.17,70.8,80.3,16,> 9.00,9.00,1.1,CCNC(=O)N1C(=O)N(c2cccc(C(F)F)c2)C2=C(C(=O)CC2)C1c1ccc(C#N)cc1 (stereo not shown) [Example 52.2]
–,–,–,> 2.17,4.45,62.7,70,> 9.00,9.00,14.1,CC(C)(O)CNC(=O)N1C(=O)N(c2cccc(C(F)F)c2)C2=C(C(=O)CC2)C1c1ccc(C#N)cc1 (stereo not shown) [Example 52.5]
8,–,–,> 2.17,–,–,88,> 9.00,> 9.00,–,"N#Cc1ccc([C@@H]2C3=C(CCC3=O)N(c3cccc(C(F)F)c3)C(=O)N2C(=O)NCCCO)cc1 [Example 52A, (R)-4-(4-Cyanophenyl)-1-(3-(difluoromethyl)phenyl)-N-(3-hydroxypropyl)-2,5-dioxo-4,5,6,7-tetrahydro-1H-cyclopenta[d]pyrimidine-3(2H)-carboxamide]"
0,–,–,–,–,–,34,–,–,–,CS(=O)(=O)c1cc(C#N)ccc1C1C2=C(CCC2=O)N(c2cccc(C(F)F)c2)C(=O)N1C(=O)NC1CC1 (stereo not shown) [Example 53.3]
0,–,–,> 2.17,9.85,94.4,14,–,–,–,CC(C)NC(=O)N1C(=O)N(c2cccc(C(F)F)c2)C2=C(C(=O)CC2)C1c1ccc(C#N)cc1S(C)(=O)=O (stereo not shown) [Example 53.4]

# Further lines, the compound ahead of its results:
Compound,CL (predicted human hepatic in vivo blood clearance) (human hepatocytes) [mL/min/kg],Aqueous solubility (Aqueous solubility) [µg/mL],"t1/2 INVITRO ([1]; pooled human liver microsomes, 1 mg/ml protein, 1 μM test compound, 37° C., NADPH) [h]",half-life at 1 μM [1] [h],Papp A→B at 10 µM [2] [×10⁻⁶ cm/s],Papp B→A at 10 µM [2] [×10⁻⁶ cm/s],solubility at 24 h (Aqueous solubility) [µg/mL],pIC50 [3],pEC50 [4],efflux ratio at 10 μM [2]
CN(C)C(=O)CN1C(=O)N(c2cccc(C(F)(F)F)c2)C2=C(C(=O)CC2)C1c1ccc(C#N)cc1 (stereo not shown) [Example 6.2],6,77,–,–,–,–,–,–,–,–
N#Cc1ccc(C2C3=C(CCC3=O)N(c3cccc(C(F)(F)F)c3)C(=O)N2CC(=O)N2CCC2)cc1 (stereo not shown) [Example 6.3],4,121,>2.17,–,–,–,–,–,–,–
"CNC(=O)N1C(=O)N(c2cccc(C(F)(F)F)c2)C2=C(C(=O)CC2)[C@H]1c1ccc(C#N)cc1 [Example 7.1A, (R)-4-(4-Cyanophenyl)-N-methyl-2,5-dioxo-1-(3-(trifluoromethyl)phenyl)-4,5,6,7-tetrahydro-1H-cyclopenta[d]pyrimidine-3(2H)-carboxamide]",3,–,–,> 2.17,72.7,68.1,23,–,–,–
"N#Cc1ccc([C@@H]2C3=C(CCC3=O)N(c3cccc(C(F)(F)F)c3)C(=O)N2C(=O)NCCO)cc1 [Example 7.2A, (R)-4-(4-Cyanophenyl)-N-(2-hydroxyethyl)-2,5-dioxo-1-(3-(trifluoromethyl)phenyl)-4,5,6,7-tetrahydro-1H-cyclopenta[d]pyrimidine-3(2H)-carboxamide]",0,–,–,> 2.17,4.03,63.3,72,–,–,–
"CCS(=O)(=O)c1cc(C#N)ccc1C1NC(=O)N(c2cccc(C(F)(F)F)c2)C2=C1C(=O)CC2 (stereo not shown) [Example 14, 4-(2,5-Dioxo-1-(3-(trifluoromethyl)phenyl)-2,3,4,5,6,7-hexahydro-1H-cyclopenta[d]pyrimidin-4-yl)-3-(ethylsulfonyl)benzonitrile]",4,–,–,> 2.17,–,–,45,8.33,–,–
"CS(=O)(=O)c1cc(C#N)ccc1C1NC(=O)N(c2cccc(C(F)F)c2)C2=C1C(=O)CC2 (stereo not shown) [Example 15.4, 4-(1-(3-(difluoromethyl)phenyl)-2,5-dioxo-2,3,4,5,6,7-hexahydro-1H-cyclopenta[d]pyrimidin-4-yl)-3-(methylsulfonyl)benzonitrile]",0,–,–,> 2.17,–,–,69,8.01,–,–
"CS(=O)(=O)c1cc(C#N)ccc1[C@@H]1C2=C(CCC2=O)N(c2cccc(C(F)(F)F)c2)C(=O)N1CC#N [Example 23, (S)-4-(3-(Cyanomethyl)-2,5-dioxo-1-(3-(trifluoromethyl)phenyl)-2,3,4,5,6,7-hexahydro-1H-cyclopenta[d]pyrimidin-4-yl)-3-(methylsulfonyl)benzonitrile]",0,–,–,> 2.17,10.3,93.5,15,8.47,> 9.00,9.1
"CN1C(=O)N(c2cccc(C(F)(F)F)c2)C2=C(C(=O)CC2)[C@H]1c1ccc(C#N)cc1S(C)(=O)=O [Example 25, (S)-4-(3-Methyl-2,5-dioxo-1-(3-(trifluoromethyl)phenyl)-2,3,4,5,6,7-hexahydro-1H-cyclopenta[d]pyrimidin-4-yl)-3-(methylsulfonyl)benzonitrile]",2,–,–,> 2.17,56.7,74,62,> 9.00,9.00,1.3
N#Cc1ccc(C2C3=C(CCC3=O)N(c3cccc(C(F)(F)F)c3)C(=O)N2C(=O)N[C@H]2CCC[C@@H]2O)cc1 (stereo partly shown) [Example 42.4],0,–,–,> 2.17,39.7,78,21,–,–,2
N#Cc1ccc(C2C3=C(CCC3=O)N(c3cccc(C(F)(F)F)c3)C(=O)N2C(=O)N[C@H]2COC[C@H]2O)cc1 (stereo partly shown) [Example 42.6],5,–,–,–,–,–,67,–,–,–
N#Cc1ccc([C@@H]2C3=C(CCC3=O)N(c3cccc(C(F)(F)F)c3)C(=O)N2C(=O)N[C@H]2COC[C@@H]2O)cc1 [Example 45.5],0,–,–,> 2.17,–,–,56,–,–,–
CC(C)NC(=O)N1C(=O)N(c2cccc(C(F)(F)F)c2)C2=C(C(=O)CC2)[C@H]1c1ccc(C#N)cc1S(C)(=O)=O [Example 47.5],–,–,–,> 2.17,19.2,86.7,16,> 9.00,9.00,–
CS(=O)(=O)CCNC(=O)N1C(=O)N(c2cccc(C(F)(F)F)c2)C2=C(C(=O)CC2)C1c1ccc(C#N)cc1F (stereo not shown) [Example 49.3],0,–,–,> 2.17,–,–,32,–,–,–
CNC(=O)N1C(=O)N(c2cccc(C(F)(F)F)c2)C2=C(C(=O)CC2)C1c1ccc(C#N)cn1 (stereo not shown) [Example 50.1],1,–,–,–,66.7,66.1,41,8.40,7.80,1
